In PubChem BioAssay AID1259371 (The Scripps Research Institute Molecular Screening Center, 2018) one finds IC50 data, which are given here for 90 compounds.

Calls of active or inactive are those of the source. No rule for the calls is given here. A value given as a limit tells only on which side of the number the result lay.

The test deals with Microphthalmia-associated transcription factor (Homo sapiens) (UniProt O75030). Description: compounds blocking human MITF signal – biochemical, AlphaScreen, dose response (AID 1259371). The settings on record: AlphaScreen biochemical MITF assay, signal inhibition.
Chain of Microphthalmia-associated transcription factor (Homo sapiens) (O75030 whole entry, looked up): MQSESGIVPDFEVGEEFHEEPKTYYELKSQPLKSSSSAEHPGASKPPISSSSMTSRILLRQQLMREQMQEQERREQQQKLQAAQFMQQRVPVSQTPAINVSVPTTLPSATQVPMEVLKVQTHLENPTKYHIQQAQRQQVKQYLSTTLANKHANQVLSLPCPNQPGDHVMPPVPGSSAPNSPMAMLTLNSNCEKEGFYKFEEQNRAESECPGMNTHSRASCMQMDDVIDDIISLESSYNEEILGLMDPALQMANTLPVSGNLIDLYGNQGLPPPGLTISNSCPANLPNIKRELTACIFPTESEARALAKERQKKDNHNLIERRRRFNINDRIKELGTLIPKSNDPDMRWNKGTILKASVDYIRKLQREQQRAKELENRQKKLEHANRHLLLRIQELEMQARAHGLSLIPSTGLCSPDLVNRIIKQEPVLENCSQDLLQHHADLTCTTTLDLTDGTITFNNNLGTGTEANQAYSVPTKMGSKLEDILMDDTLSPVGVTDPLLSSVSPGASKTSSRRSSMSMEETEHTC
For the compound `O=C(OC1CCCC1=O)c1ccc(N2CCCC2=O)cc1` (stereo not given), the IC50 result was “inactive”.

`Cc1cc(NC(=O)C2CCN(C(=O)c3ccc(-n4cccc4)cc3)CC2)no1`: the IC50 entry is “inactive”.

In the case of `O=C(c1ccc2c(c1)C(=O)N(Cc1cccnc1)C2=O)c1ccc2c(c1)C(=O)N(Cc1cccnc1)C2=O`, the IC50 entry is “inactive”.

As for `CCN1CCc2c(sc(NC(=S)NC(=O)/C=C/c3ccco3)c2C(N)=O)C1`, the IC50 was 726 nM.

On to `COc1cc(C(=O)N2CCN(Cc3ccccc3C)CC2)cc(OC)c1OC`, for which the IC50 was > 5620 nM (inactive).

For `Cc1ccc2[nH]c(=O)c(=O)[nH]c2c1`, the IC50 was > 12100 nM (inactive).

`O=C1N[C@@H](CC2CCCCC2)C(=O)N2CCN(C(=O)NCc3ccccc3)C[C@H]12`: the IC50 was > 2160 nM (inactive).

Consider `CN(CCOC(=O)/C=C/c1ccco1)Cc1ccccc1`, for which the IC50 is 48.3 nM.

With `CCOC(=O)C1C2NC(=S)N(c3ccc(C)cc3)C1(C)Oc1c(OCC)cccc12` (stereo not given), the IC50 was > 4890 nM (inactive).

Regarding `CN1C(=O)[C@H]2CN(C(=O)NC3CCCCC3)CCN2C(=O)[C@@H]1Cc1ccccc1`, the IC50 entry is “inactive”.

For `Oc1ccc2c(c1)C1CCCC1(N1CCOCC1)O2` (stereo not given), the IC50 entry was “inactive”.

On to `O=C(CCCCC1SCC2NC(=O)NC21)NC1(c2ccc3c(c2)OCO3)CCCC1` (stereo not given), for which the IC50 result was “inactive”.

For `O=C(O)c1cccc2c1C(=O)N(c1ccccc1)C2`, the IC50 result was “inactive”.

On to `C=CCNCCOCCOc1ccc(OCC)cc1`, for which the IC50 was > 6480 nM (inactive).

As to `CN1C(=O)[C@H]2CN(C(=O)NC3CCCCC3)CCN2C(=O)[C@@H]1CO`, the IC50 was > 6480 nM (inactive).

On to `Cn1cc(-c2nc(Nc3ccc(-n4cnc(N5CCOCC5)n4)cc3)ncc2Br)cn1`, for which the IC50 result was “inactive”.

`O=C(O)c1ccc(CS(=O)(=O)c2ccccc2)o1`: the IC50 is 146 nM.

As to `O=C(O)c1cc(C(=O)O)cc(-c2ccc(/C=N\n3cnnc3)o2)c1`, the IC50 result is “inactive”.

`O=C(/C=C/c1ccco1)NCC(=O)N/N=C/c1ccc(C(=O)O)cc1`: the IC50 entry is “inactive”.

`Cc1ccccc1/C=C1\N=C(c2cc(C3=N/C(=C/c4ccccc4C)C(=O)O3)cc(C3=N/C(=C/c4ccccc4C)C(=O)O3)c2)OC1=O`: the IC50 result was “inactive”.

On to `C=C1C(C(=O)NCc2ccco2)C1C(=O)NCc1ccco1` (stereo not given), for which the IC50 is 573 nM.

For `COc1ccc(C[C@@H]2NC(=O)[C@H]3CN(C(=O)NC4CCCCC4)CCN3C2=O)cc1`, the IC50 result was “inactive”.

Take `Cc1ccc(C(=O)Nc2ccc([N+](=O)[O-])cn2)o1`: the IC50 was > 6480 nM (inactive).

As to `O=C(/C=C/c1ccco1)NC(=S)Nc1cc(C(=O)O)ccc1Cl`, the IC50 is 146 nM.

For `CCOC(=O)C1C2NC(=S)N(c3cccc(Cl)c3)C1(C)Oc1c(OC)cccc12` (stereo not given), the IC50 was > 5090 nM (inactive).

Regarding `NC(=O)c1cc(NC(=O)COC(=O)COc2cccc(C(F)(F)F)c2)cc(C(N)=O)c1`, the IC50 entry was “inactive”.

In the case of `COCCCNC(=O)/C(C#N)=C/c1ccc(-c2ccc(C(=O)O)c(Cl)c2)o1`, the IC50 result is “inactive”.

With `C/C=C\C1=C(C(=O)O)N2C(=O)C(NC(=O)C(N)c3ccc(O)cc3)C2SC1` (stereo not given), the IC50 is > 6480 nM (inactive).

On to `COC(=O)CSc1nnc(-c2cnccn2)n1C`, for which the IC50 is > 6480 nM (inactive).

Turning to `COc1ccc2nc(-c3ccco3)c(-c3ccco3)nc2c1`, the IC50 result is “inactive”.

Regarding `N#C/C(=C\c1ccc(-c2ccccc2C(=O)O)o1)C(=O)NCc1ccco1`, the IC50 is 326 nM.

`O=C(c1ccc([N+](=O)[O-])cc1)N1CCN(Cc2cccc3ccccc23)CC1`: the IC50 was > 5480 nM (inactive).

Take `N#Cc1c(-c2ccc3c(c2)OCO3)nc(N2CCCCC2)[nH]c1=O`: the IC50 entry was “inactive”.

On to `O=C(COC(=O)/C=C/c1ccco1)COC(=O)/C=C/c1ccco1`, for which the IC50 was 122 nM.

Take `O=C(O)c1ccc(CNC(=O)c2cocc2C(=O)O)o1`: the IC50 is > 7320 nM (inactive).

With `CN(C)/C=C/C=C/C(=O)c1cccc(C(=O)/C=C/C=C/N(C)C)c1O`, the IC50 is 303 nM.

In the case of `CCC(C)NCCOc1cccc(Br)c1` (stereo not given), the IC50 was > 6480 nM (inactive).

Take `CC(Oc1ccc2c(C(F)(F)F)cc(=O)oc2c1)C(=O)NN` (stereo not given): the IC50 result is “inactive”.

For `CN(C)/C=C/C=C/C=C/C(=O)c1ccc(C(=O)/C=C/C=C/C=C/N(C)C)cc1`, the IC50 was 96.7 nM.

Consider `O=[N+]([O-])c1cc(C=Nc2ccc(N3CCOCC3)cc2)c(O)c([N+](=O)[O-])c1`, for which the IC50 is 753 nM.

As for `O=C(O)CCN(CCC(=O)O)c1ccc(O)cc1`, the IC50 was 138 nM.

In the case of `COc1cc(CN2CCN(C3CCCC3)CC2)cc(OC)c1OC`, the IC50 is > 6480 nM (inactive).

For `COc1ccc2c(c1)C1NC(=S)N(c3cccc(C)c3)C(C)(O2)C1C(=O)Nc1ccc(C)cc1C` (stereo not given), the IC50 is > 5710 nM (inactive).

As to `N#CC(C#N)=C(N)/C(C#N)=C/c1ccc([N+](=O)[O-])o1`, the IC50 is 467 nM.

For `CN(C)CCN(C(=O)OCc1ccccc1)c1cc(-c2cn[nH]c2)ccc1NC(=O)OCc1ccccc1`, the IC50 result was “inactive”.

On to `CC(=O)NS(=O)(=O)c1ccc(NC(=O)c2ccc([N+](=O)[O-])o2)cc1`, for which the IC50 entry is “inactive”.

Turning to `CCN(C(=O)C1COc2ccccc2O1)C12CC3CC(CC(C3)C1)C2` (stereo not given), the IC50 result is “inactive”.

Consider `CSc1ccc(C(=O)O)s1`, for which the IC50 entry is “inactive”.

As for `COc1ccc2c(c1)CC(C(=O)Nc1ccc(-c3cn[nH]c3)cc1C(=O)N(C)OC)CO2` (stereo not given), the IC50 result is “inactive”.

For `O=S(=O)(c1ccccc1C(F)(F)F)N1CCC(c2nc3ccccc3[nH]2)CC1`, the IC50 was 470 nM.

As for `O=C(Nc1cc(S(=O)(=O)O)cc2cc(S(=O)(=O)O)cc(O)c12)c1ccccc1`, the IC50 is 951 nM.

On to `COc1ccc(S(=O)(=O)CCC(=O)Nc2nc3ccc(OC)cc3s2)cc1`, for which the IC50 was > 4550 nM (inactive).

Regarding `COc1ccc(CN2CCN(Cc3ccccc3OC)CC2)cc1`, the IC50 is > 7330 nM (inactive).

Turning to `COc1cc2cc3c(N)c(C(=O)Nc4sc(C)c(C)c4C#N)sc3nc2cc1OC`, the IC50 is 409 nM.

Regarding `O=S(=O)(O)c1ccc(N/N=C2\CCc3ccccc32)cc1`, the IC50 was > 2160 nM (inactive).

With `O=C(C1CCC(Nc2nccc(-c3ccc4nc(C5CC5)[nH]c(=O)c4c3)n2)CC1)N1CCCC1` (stereo not given), the IC50 result was “inactive”.

As for `O=C(/C=C/c1ccco1)ON1C(=O)c2ccccc2C1=O`, the IC50 was > 6480 nM (inactive).

Consider `CC[C@@H]1NC(=O)[C@H]2CN(C(=O)NCc3ccccc3)CCN2C1=O`, for which the IC50 was 436 nM.

Consider `N#C/C(=C(/O)COC(=O)c1cc2c(s1)CCC2)c1nc2ccccc2[nH]1`, for which the IC50 was 693 nM.

`COC(=O)CCc1cc2c(C)cc(=O)oc2cc1OCc1ccc(C)cc1`: the IC50 is > 6480 nM (inactive).

As for `O=c1[nH]cnc2nc(-c3ccco3)c(-c3ccco3)nc12`, the IC50 is 79.7 nM.

`CC(O)(CNCCN1CCOCC1)COc1ccc(Cl)cc1` (stereo not given): the IC50 entry is “inactive”.

For the compound `O=C1c2c(O)cccc2Cc2cccc(O)c21`, the IC50 was 232 nM.

On to `c1coc(CNc2ccc3ncc(-c4ccco4)n3n2)c1`, for which the IC50 result was “inactive”.

Take `CCOC(=O)C1CCCN(Cc2cccc(Br)c2)C1` (stereo not given): the IC50 was > 6480 nM (inactive).

Take `Cc1occc1C(=O)N/N=C/C=C/c1ccco1`: the IC50 is 11.2 nM.

`C[C@H]1C(=O)N2CCN(C(=O)NCc3ccccc3)C[C@@H]2C(=O)N1C`: the IC50 result was “inactive”.

Regarding `CC(C)(C)c1ccc(OCCn2cncn2)c(Cl)c1`, the IC50 is > 6480 nM (inactive).

For `Cn1nnc(-c2ccc(Nc3nccc(-c4ccc5nc(C6CC6)[nH]c(=O)c5c4)n3)cc2)n1`, the IC50 result is “inactive”.

Regarding `O=C(O)C1CC=CCC1C(=O)Nc1nncs1` (stereo not given), the IC50 result was “inactive”.

Take `Cc1ccc(NC(=O)COC(=O)CCC(=O)Nc2sc3c(c2C(N)=O)CCC3)cc1F`: the IC50 entry is “inactive”.

With `NC(=O)/C(=C\c1cccc([N+](=O)[O-])c1)NC(=O)c1ccc(Br)cc1`, the IC50 is > 6480 nM (inactive).

With `O=C(NCC(O)C(=O)N1CCOCC1)c1cccc(Nc2ccc3[nH]ncc3c2)n1` (stereo not given), the IC50 result was “inactive”.

Regarding `O=C(c1ccc2nc(-c3ccco3)c(-c3ccco3)nc2c1)N1CCSCC1`, the IC50 was 222 nM.

Regarding `COc1cccc(C(=O)N2CCN(Cc3cccc(Cl)c3)CC2)c1`, the IC50 is > 4800 nM (inactive).

Consider `Nc1cccc(N2C(=O)c3cc(S(=O)O)cc4c(N)c(S(=O)O)cc(c34)C2=O)c1`, for which the IC50 entry was “inactive”.

As to `O=C(O)CCCNC(=O)/C=C/c1ccco1`, the IC50 was > 2160 nM (inactive).

For the compound `N#CC1=c2/c(=C/c3ccco3)c(N)c(C#N)n2C(=O)C(c2ccco2)S1` (stereo not given), the IC50 is 28.1 nM.

Take `COc1ccc2c(c1)CC(c1nc(Nc3ccc4cnccc4c3)c3ccccc3n1)CO2` (stereo not given): the IC50 was > 6480 nM (inactive).

Regarding `O=c1c2ccccc2nc(-c2ccccc2)n1-c1ccccc1O`, the IC50 was > 6500 nM (inactive).

Consider `O=C(CCc1ccco1)Nc1ccc(-c2cn3c4c(nnc3n2)CCCC4)cc1`, for which the IC50 was 32 nM.

For `O=C(O)c1ccc(O)c(C=Nc2ccc(N=Cc3cc(C(=O)O)ccc3O)cc2)c1`, the IC50 result was “inactive”.

As to `C/C(N)=C(/C#N)C(=O)COC(=O)c1c2c(nc3ccccc13)/C(=C/c1ccco1)CC2`, the IC50 was 443 nM.

Take `Nc1ccc(O)c(C(=O)O)c1`: the IC50 was 18.7 nM.

For the compound `N#CC(C#N)=Cc1cccn1-c1ccc(C(=O)O)cc1`, the IC50 entry is “inactive”.

Turning to `C[C@@H](O)[C@@H]1NC(=O)[C@H]2CN(C(=O)NCc3ccccc3)CCN2C1=O`, the IC50 is > 2160 nM (inactive).

For `O=C(/C=C/c1ccc(-c2cccc(C(F)(F)F)c2)o1)c1ccco1`, the IC50 was 160 nM.

With `CC(=O)Nc1ccc(N2C(=O)c3ccccc3C2(O)Cc2ccccc2)cc1` (stereo not given), the IC50 was > 6480 nM (inactive).

On to `O=C1N[C@@H](Cc2ccc(O)cc2)C(=O)N2CCN(C(=O)NCc3ccccc3)C[C@H]12`, for which the IC50 is > 2160 nM (inactive).

In the case of `CC(O)C(=O)N/N=C/C=C/c1ccc([N+](=O)[O-])o1` (stereo not given), the IC50 result is “inactive”.
